# Earlier results, collected in patent US12369587B2, “Aqueous composition of epyrifenacil, flumioxazin and pyroxasulfone” (Valent U.S.A. LLC, priority 2020, dated 2025).
compound,measurement,value
"C#CCN1C(=O)COc2cc(F)c(N3C(=O)C4=C(CCCC4)C3=O)cc21 [flumioxazin, 2-(7-fluoro-3-oxo-4-prop-2-ynyl-1,4-benzoxazin-6-yl)-4,5,6,7-tetrahydroisoindole-1,3-dione]",water solubility,1.79 ppm
